Measured values reported in patent publication US20240383906A1, “5-SUBSTITUTED PYRIDINE-2(1H)-KETONE COMPOUND AND USE THEREOF” (JIANGSU KANION PHARMACEUTICAL CO., LTD., priority 2021, published 2024).
Where two headings read alike, the source gives them in different places.

How the values were obtained:
[1] = Toxicological evaluation (with toxicokinetics) of rats administered for 21 consecutive days; conditions: SD, rat, in vivo, po
Experimental: • SD rats (male and female, 7 to 8 weeks old, Zhejiang Vital River Laboratory Animal Technology Co., Ltd.).
• In this experiment, SD rats were administered orally once a day with a test substance, a candidate drug for treating cancer, for 21 days to detect its potential toxicity. At the same time, the toxicokinetic (TK) characteristics of the compound in the animals were examined.
126 rats (63 per gender) were divided into 6 groups. In the main test administration groups, each group had 5 males and 5 females. In the TK test control group, there were 3 males and 3 females. In the administration groups, each group had 6 males and 6 females. The compound was administered once a day at doses of 1, 3, 10, 20 milligrams per kilogram per day (mg/kg/day). The control group was only given the solvent. The volume of administration was 10 mL/kg. At the start of administration, the animals were 7 to 8 weeks old, with male weights ranging from 251.11 to 308.11 grams, and female weights from 181.53 to 219.03 grams.
The evaluation items include mortality (moribund/death), clinical symptoms, body weight, food consumption, clinical pathology (hematology, serum biochemistry, coagulation), gross (necropsy) evaluation, organ weights, histopathological evaluation, and toxicokinetics. The toxicokinetic parameters include peak concentration (Cmax), time to maximum drug concentration (Tmax), and area under the drug-time curve (AUC0-last).

[2] = tested on: WNT pathway STF reporter gene; assay: Super-Top-Flash (STF) reporter gene inhibitory activity test; format: cell-based; conditions: HEK293 STF and L wnt3A cells 1:1, 24 hours, Bright-Glo
Experimental: HEK293 STF and L wnt3A cells were provided by Wuhan Heyan Biomedical Technology Co., Ltd., and Bright Glo was purchased from Promega.
• HEK293 STF and L wnt3A cells were seeded in a white 96-well plate at a ratio of 1:1, with 80 μL of cell suspension per well, each containing 20,000 HEK293 STF cells and 20,000 L wnt3A cells. The cell plate was placed in a carbon dioxide incubator for overnight culture.
The test compounds were 5-fold diluted with a multi-channel pipette to the 8th concentration, i.e., diluted from 400 μM to 5.12 nM, and duplicate experiment was set. 78 μL of culture medium was added to an intermediate plate, and then 2 μL of gradient diluted compound per well was transferred to the intermediate plate according to the corresponding position. After mixing well, the compound was transferred to the cell plate at 20 μL per well. The cell plate was placed in a carbon dioxide incubator and cultured for 24 hours.
100 μL of Promega Bright-Glo reagent was added to each well of the cell plate, and it was incubated at room temperature for 10 minutes to stabilize the luminescent signal. A multimode microplate reader was used for reading.
Using the raw data from the multimode microplate reader, the IC50 value could be obtained through curve fitting. Table 10 provides the data on the inhibitory activity of the compounds of the present disclosure on the Wnt signaling pathway.

Capan-2 cells = assay: Capan-2 cell anti-proliferative activity test; format: cell-based; conditions: Homo sapiens, Capan-2, 120 h; 5 days, CellTiter-Glo
Experimental: Capan-2 cells were provided by Wuhan Heyan Biomedical Technology Co., Ltd., and CellTiter-Glo was purchased from Promega.
Capan-2 cells were seeded in a white 96-well plate, with 80 μL of cell suspension per well, each containing 5,000 Capan-2 cells. The cell plate was placed in a carbon dioxide incubator for overnight culture.
The test compounds were 3-fold diluted with a multi-channel pipette to the 9th concentration, i.e., diluted from 200 μM to 30 nM, and duplicate experiment was set. 78 μL of culture medium was added to an intermediate plate, and then 2 μL of gradient diluted compound per well was transferred to the intermediate plate according to the corresponding position. After mixing well, the compound was transferred to the cell plate at 20 μL per well. The cell plate was placed in a carbon dioxide incubator and cultured for 5 days. Another cell plate was prepared, and the signal value was read on the day of drug administration to serve as the maximum value (Max value in the equation below) for data analysis. 25 μL of cell viability chemiluminescence detection reagent was added to each well of this cell plate, and it was incubated at room temperature for 10 minutes to stabilize the luminescent signal. A multimode microplate reader was used for reading.
After the cell plate was cultured for 5 days, 25 μL of Promega CellTiter-Glo reagent was added to each well of the cell plate, and it was incubated at room temperature for 10 minutes to stabilize the luminescent signal. A multimode microplate reader was used for reading.
The IC50 value could be obtained through curve fitting, and the results of the inhibitory activity of the compounds of the present disclosure on the proliferation of Capan-2 cells are shown in Table 11.

[3] = female, 1 mg/kg/day, female, oral 1 mg/kg/day, Day 1
[4] = female, 1 mg/kg/day, female, oral 1 mg/kg/day, Day 21
[5] = female, 3 mg/kg/day, female, oral 3 mg/kg/day, Day 1
[6] = female, 3 mg/kg/day, female, oral 3 mg/kg/day, Day 21
[7] = female, 10 mg/kg/day, female, oral 10 mg/kg/day, Day 1
[8] = female, 10 mg/kg/day, female, oral 10 mg/kg/day, Day 21
[9] = female, 20 mg/kg/day, female, oral 20 mg/kg/day, Day 1
[10] = female, 20 mg/kg/day, female, oral 20 mg/kg/day, Day 21
[11] = male, 1 mg/kg/day, male, oral 1 mg/kg/day, Day 1
[12] = male, 1 mg/kg/day, male, oral 1 mg/kg/day, Day 21
[13] = male, 3 mg/kg/day, male, oral 3 mg/kg/day, Day 1
[14] = male, 3 mg/kg/day, male, oral 3 mg/kg/day, Day 21
[15] = male, 10 mg/kg/day, male, oral 10 mg/kg/day, Day 1
[16] = male, 10 mg/kg/day, male, oral 10 mg/kg/day, Day 21
[17] = male, 20 mg/kg/day, male, oral 20 mg/kg/day, Day 1
[18] = male, 20 mg/kg/day, male, oral 20 mg/kg/day, Day 21

Cn1cc(-c2cnc(CNc3nccn4c(-c5cc(F)cc(F)c5)cnc34)cn2)ccc1=O [Compound 2]
Cmax [1, 3]: 1.02 µM | Tmax [1, 3]: 4 h | AUC(0-t) ([1]; female, 1 mg/kg/day, female, oral 1 mg/kg/day, Day 1, read-out: AUC0-24 h): 14.5 µM·h | Cmax [1, 4]: 1.58 µM | Tmax [1, 4]: 8 h | AUC(0-t) ([1]; female, 1 mg/kg/day, female, oral 1 mg/kg/day, Day 21, read-out: AUC0-24 h): 25.6 µM·h | Cmax [1, 5]: 2.27 µM | Tmax [1, 5]: 8 h | AUC(0-t) ([1]; female, 3 mg/kg/day, female, oral 3 mg/kg/day, Day 1, read-out: AUC0-24 h): 33.2 µM·h | Cmax [1, 6]: 4.18 µM | Tmax [1, 6]: 8 h | AUC(0-t) ([1]; female, 3 mg/kg/day, female, oral 3 mg/kg/day, Day 21, read-out: AUC0-24 h): 63.8 µM·h | Cmax [1, 7]: 3.93 µM | Tmax [1, 7]: 4 h | AUC(0-t) ([1]; female, 10 mg/kg/day, female, oral 10 mg/kg/day, Day 1, read-out: AUC0-24 h): 77.7 µM·h | Cmax [1, 8]: 8.8 µM | Tmax [1, 8]: 8 h | AUC(0-t) ([1]; female, 10 mg/kg/day, female, oral 10 mg/kg/day, Day 21, read-out: AUC0-24 h): 144 µM·h | Cmax [1, 9]: 6.17 µM | Tmax [1, 9]: 8 h | AUC(0-t) ([1]; female, 20 mg/kg/day, female, oral 20 mg/kg/day, Day 1, read-out: AUC0-24 h): 101 µM·h | Cmax [1, 10]: 10.3 µM | Tmax [1, 10]: 8 h | AUC(0-t) ([1]; female, 20 mg/kg/day, female, oral 20 mg/kg/day, Day 21, read-out: AUC0-24 h): 179 µM·h | Cmax [1, 11]: 0.97 µM | Tmax [1, 11]: 8 h | AUC(0-t) ([1]; male, 1 mg/kg/day, male, oral 1 mg/kg/day, Day 1, read-out: AUC0-24 h): 12.5 µM·h | Cmax [1, 12]: 1.62 µM | Tmax [1, 12]: 8 h | AUC(0-t) ([1]; male, 1 mg/kg/day, male, oral 1 mg/kg/day, Day 21, read-out: AUC0-24 h): 22.4 µM·h | Cmax [1, 13]: 1.88 µM | Tmax [1, 13]: 8 h | AUC(0-t) ([1]; male, 3 mg/kg/day, male, oral 3 mg/kg/day, Day 1, read-out: AUC0-24 h): 23.1 µM·h | Cmax [1, 14]: 3.5 µM | Tmax [1, 14]: 8 h | AUC(0-t) ([1]; male, 3 mg/kg/day, male, oral 3 mg/kg/day, Day 21, read-out: AUC0-24 h): 50.1 µM·h | Cmax [1, 15]: 2.96 µM | Tmax [1, 15]: 4 h | AUC(0-t) ([1]; male, 10 mg/kg/day, male, oral 10 mg/kg/day, Day 1, read-out: AUC0-24 h): 47.4 µM·h | Cmax [1, 16]: 6.87 µM | Tmax [1, 16]: 8 h | AUC(0-t) ([1]; male, 10 mg/kg/day, male, oral 10 mg/kg/day, Day 21, read-out: AUC0-24 h): 110 µM·h | Cmax [1, 17]: 4.24 µM | Tmax [1, 17]: 8 h | AUC(0-t) ([1]; male, 20 mg/kg/day, male, oral 20 mg/kg/day, Day 1, read-out: AUC0-24 h): 76.6 µM·h | Cmax [1, 18]: 7.34 µM | Tmax [1, 18]: 8 h | AUC(0-t) ([1]; male, 20 mg/kg/day, male, oral 20 mg/kg/day, Day 21, read-out: AUC0-24 h): 123 µM·h | IC50 [2]: 0.23 nM | IC50 (Capan-2 cells): 6.07 nM
